This is an account of results in US12378203B2, “Imidazole compounds, process for the synthesis and uses thereof” (AHAMMUNE BIOSCIENCES PRIVATE LIMITED, priority 2018, dated 2025).

One assay has as its system mouse B16F10 cells. Kind of assay: Protection of melanocytes from tunicamycin (ER stress) induced cell death, MTT assay, B16F10. Conditions: for % Recovery: compound at 25-30 μM, 6 h pretreatment, tunicamycin 300 ng/ml, total 72 h, cell growth over tunicamycin treatment. Type of assay: cell-based. Here is the method:
(§1) Compounds synthesized under present invention were tested for their in vitro potency. The potency was tested as their ability to protect melanocytes from ER stress induced cell death. ER stress was caused by the treatment of tunicamycin. The results obtained are summarized in Table-I, Table-II and Table-III for mouse B16F10 cells, human A375 cells and human primary melanocytes respectively. Table-IV and Table-V describes the potency of the compounds in effective concentration 50 (EC50) which means the dose of compound needed to get the 50% of maximum effect.
(§2) For the estimation of potency, mouse B16F10, human A375 or human primary melanocytes (NHEM) cells were pretreated in quadruplicates with these compounds for 6 hours. After 6 hours of incubation, tunicamycin was added at either 300 ng/ml for B16F10 cells or at 100 ng/ml for A375 cells or at 200 ng/ml for NHEM to induce stress mediated cell death and cultured further for a total of 72 hours. The vehicle (DMSO) concentration was kept constant for each well. After 72 hours of treatment, MTT assay was performed to measure the cell growth and vehicle control was kept at 100%. Effect of the treatment of compounds was calculated as cell growth over tunicamycin treatment. For the estimation of Effective Concentration 50 (EC50), cells were treated with different concentration of compounds along with tunicamycin and MTT assay was performed. The EC50 values were calculated by GraphPad Prism 7 software.

The next assay relates to human A375 cells. The experiment in a line: Protection of melanocytes from tunicamycin (ER stress) induced cell death, MTT assay, A375. It counts as cell-based. Particulars: for % Recovery: compound at 25-30 μM, 6 h pretreatment, tunicamycin 100 ng/ml, total 72 h, cell growth over tunicamycin treatment. Here is the method: as §1, §2
For orientation: Tetrazolium dyes change colour on reduction, which living cells bring about.

For the molecule `O=C(Cc1c[nH]c(-c2ccc(Cl)cc2)n1)NCCc1ccc(F)cc1` [Compound 001, 2-(2-(4-chlorophenyl)-1H-imidazol-4-yl)-N-(4-fluorophenethyl)acetamide], the entries for the “% Recovery” value with mouse B16F10 cells and in the assay with human A375 cells were 52% and 25%, respectively. For `O=C(Cc1c[nH]c(-c2ccc(Cl)cc2)n1)NCCN1CCOCC1` [Compound 003, 2-(2-(4-chlorophenyl)-1H-imidazol-4-yl)-N-(2-morpholinoethyl)acetamide], the “% Recovery” value with mouse B16F10 cells is 17%; with human A375 cells, 13%. For `CCCCNC(=O)Cc1c[nH]c(-c2ccc(Cl)cc2)n1` [Compound 004, N-butyl-2-(2-(4-chlorophenyl)-1H-imidazol-4-yl)acetamide], the “% Recovery” value in the assay with mouse B16F10 cells worked out at 22%; in the assay with human A375 cells it was 32%.

For the molecule `CCCCNC(=O)Cc1cn(C)c(-c2ccc(Cl)cc2)n1` [Compound 005, N-butyl-2-(2-(4-chlorophenyl)-1-methyl-1H-imidazol-4-yl)acetamide], the “% Recovery” value with mouse B16F10 cells is listed as 38%. The same measure, in the same setting: the figure for `Cn1cc(CC(=O)NCCN2CCOCC2)nc1-c1ccc(Cl)cc1` [Compound 006, 2-(2-(4-chlorophenyl)-1-methyl-1H-imidazol-4-yl)-N-(2-morpholinoethyl)acetamide] is 31%.

With `Cn1cc(CC(=O)Nc2cccc(C(F)(F)F)c2)nc1-c1ccc(Cl)cc1` [Compound 007, 2-(2-(4-chlorophenyl)-1-methyl-1H-imidazol-4-yl)-N-(3-(trifluoromethyl)phenyl)acetamide], the “% Recovery” value in the assay on mouse B16F10 cells worked out at 38%; in the assay on human A375 cells it was 19%.

With `CC(C)OCCCNC(=O)Cc1cn(C)c(-c2ccc(Cl)cc2)n1` [Compound 008, 2-(2-(4-chlorophenyl)-1-methyl-1H-imidazol-4-yl)-N-(3-isopropoxypropyl)acetamide], the “% Recovery” value in the assay on mouse B16F10 cells turned out to be 39%.

For the molecule `O=C(Cc1c[nH]c(-c2ccc(Cl)cc2)n1)Nc1cccc(C(F)(F)F)c1` [Compound 009, 2-(2-(4-chlorophenyl)-1H-imidazol-4-yl)-N-(3-(trifluoromethyl)phenyl)acetamide], the “% Recovery” value with mouse B16F10 cells is reported as 36%. Still for that read-out and setting: in the case of `O=C(Cc1c[nH]c(-c2ccc(Cl)cc2)n1)Nc1ccc(F)cc1` [Compound 011, 2-(2-(4-chlorophenyl)-1H-imidazol-4-yl)-N-(4-fluorophenyl)acetamide] it was 18%; in that of `O=C(Cc1c[nH]c(-c2ccc(Cl)cc2)n1)N1CCC(F)(F)CC1` [Compound 012, 2-(2-(4-chlorophenyl)-1H-imidazol-4-yl)-1-(4,4-difluoropiperidin-1-yl)ethan-1-one], 15%; in that of `Cn1cc(CC(=O)Nc2ccc(F)cc2)nc1-c1ccc(Cl)cc1` [Compound 013, 2-(2-(4-chlorophenyl)-1-methyl-1H-imidazol-4-yl)-N-(4-fluorophenyl)acetamide], 40%.

Turning to `Cn1cc(CC(=O)N2CCCC2)nc1-c1ccc(Cl)cc1` [Compound 017, 2-(2-(4-chlorophenyl)-1-methyl-1H-imidazol-4-yl)-1-(pyrrolidin-1-yl)ethan-1-one], the “% Recovery” value with mouse B16F10 cells was found to be 29%. Same read-out and setting: the figure for `O=C(Cc1c[nH]c(-c2ccc(Cl)cc2)n1)NC1CCCC1` [Compound 019, 2-(2-(4-chlorophenyl)-1H-imidazol-4-yl)-N-cyclopentylacetamide] is 36%; for `CN1CCN(C(=O)Cc2c[nH]c(-c3ccc(Cl)cc3)n2)CC1` [Compound 020, 2-(2-(4-chlorophenyl)-1H-imidazol-4-yl)-1-(4-methylpiperazin-1-yl)ethan-1-one] it is 17%. As usually defined, the EC50 is the concentration giving half of the maximal effect. Higher therefore signals weaker potency. The molecule `CN1CCN(C(=O)Cc2cn(C)c(-c3ccc(Cl)cc3)n2)CC1` [Compound 021, 2-(2-(4-chlorophenyl)-1-methyl-1H-imidazol-4-yl)-1-(4-methylpiperazin-1-yl)ethan-1-one] came in with an EC50 in the assay with mouse B16F10 cells (Mus musculus, B16-F10, different concentrations of compound along with tunicamycin, GraphPad Prism 7) of 55.7 µM. `O=C(NCCc1c[nH]c(-c2cc(Cl)cc(Cl)c2)n1)c1cc(F)cc(F)c1` [Compound 069, N-(2-(2-(3,5-dichlorophenyl)-1H-imidazol-4-yl)ethyl)-3,5-difluorobenzamide]: in the assay on human A375 cells (Homo sapiens, A-375, different concentrations of compound along with tunicamycin, GraphPad Prism 7), the EC50 worked out at 1200 nM. Also, the “% Recovery” value in the assay with human A375 cells is 88%.
